Laboratory results taken from US4820834A, “Benzodiazepine analogs” (priority 1987, dated 1989).
Counter-ions that a name gives are not always drawn. Like-named read-outs stand apart in the source and are kept apart here.

Tests used:
[1] = biological target: T1, CCK receptor (brain, cerebral cortex) (Cavia porcellus, UniProt H0VZC5); assay: biochemical; assay type: binding, Male Hartley guinea pigs; conditions: guinea pig cerebral cortex, ^125 I-CCK-33, 25° C., 2 hours
T1 construct: Cerebral cortex was dissected and used as a receptor source; from tissue; host or cells: guinea pig cerebral cortex membranes (male Hartley)
T1 sequence (H0VZC5 1-426): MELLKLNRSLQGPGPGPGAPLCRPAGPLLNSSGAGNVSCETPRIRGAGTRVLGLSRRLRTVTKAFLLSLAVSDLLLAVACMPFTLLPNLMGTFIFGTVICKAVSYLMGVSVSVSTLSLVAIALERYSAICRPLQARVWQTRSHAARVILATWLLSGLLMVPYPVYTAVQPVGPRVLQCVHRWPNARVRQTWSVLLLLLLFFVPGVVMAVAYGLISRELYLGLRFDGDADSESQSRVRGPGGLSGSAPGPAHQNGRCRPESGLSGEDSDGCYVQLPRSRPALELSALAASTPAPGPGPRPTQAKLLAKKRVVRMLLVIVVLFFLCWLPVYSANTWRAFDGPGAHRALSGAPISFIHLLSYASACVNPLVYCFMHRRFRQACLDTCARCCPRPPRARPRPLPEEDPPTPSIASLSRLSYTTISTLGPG
Outline: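 Guinea pig cerebral cortex homogenate as receptor source, with radiolabeled CCK-33 in HEPES buffer containing MgCl2, bacitracin, EGTA and 0.4% BSA. Incubation 2 h at 25°C; bound ligand pelleted by centrifugation and gamma-counted.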

[2] = biological target: T2, Gastrin receptor (gastric glands) (Cavia porcellus, UniProt H0VZC5); assay: Gastrin Receptor Binding in Guinea Pig Gastric Glands; set-up: species or system guinea pig (male Hartley); conditions: 25° C., 30 minutes
T2 construct: The washed guinea pig gastric glands prepared as above were resuspended; from tissue; host or cells: guinea pig gastric mucosal glands (male Hartley)
T2 sequence (H0VZC5 1-426): T1 sequence (H0VZC5 1-426)

CCK receptor (pancreas) = biological target: T3, CCK receptor (pancreas) (Rattus norvegicus, UniProt P30551); assay: CCK Receptor Binding (Pancreas): inhibition of ^125 I-CCK-33 binding; set-up: species or system Male Sprague-Dawley rats; conditions: rat pancreas membranes, ^125 I-CCK-33, 37° C., 30 minutes
T3 construct: The whole pancreas was dissected free of fat tissue and was homogenized; from tissue; host or cells: rat pancreas membranes (Sprague-Dawley)
T3 sequence (P30551 1-444): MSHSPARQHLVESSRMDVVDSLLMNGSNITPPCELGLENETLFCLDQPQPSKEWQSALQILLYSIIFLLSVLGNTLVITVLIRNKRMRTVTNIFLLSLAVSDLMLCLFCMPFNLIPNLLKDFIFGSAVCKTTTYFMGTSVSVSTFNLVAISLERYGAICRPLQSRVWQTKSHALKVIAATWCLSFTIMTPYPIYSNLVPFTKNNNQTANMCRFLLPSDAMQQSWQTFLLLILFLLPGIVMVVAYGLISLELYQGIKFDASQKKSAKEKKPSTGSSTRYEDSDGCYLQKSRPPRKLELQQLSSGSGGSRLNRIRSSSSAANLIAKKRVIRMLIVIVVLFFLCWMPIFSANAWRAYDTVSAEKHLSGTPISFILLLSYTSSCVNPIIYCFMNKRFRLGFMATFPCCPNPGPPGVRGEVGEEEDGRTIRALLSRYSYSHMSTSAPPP
Outline: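 Rat (male Sprague-Dawley) pancreatic membranes in 50 mM Tris HCl pH 7.7 with DTT, bacitracin, PMSF and o-phenanthroline; ^125I-Bolton Hunter-labelled CCK-33 as radioligand. Incubation 30 min at 37° C, separation by centrifugation, pellet gamma-counted; Scatchard analysis by diluting ^125I-CCK-33 with increasing CCK-33.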

[3] = ^125 I-gastrin, read-out: IC50 ^125 I-Gastrin Gastric Glands
[4] = read-out: IC50 ^125 I-CCK Pancreas
[5] = IC50 ^125 I-Gastrin Gastric Glands
[6] = read-out: IC50 ^125 I-CCK Brain

## CN1C(=O)[C@@H](NC(=O)c2ccc(C(F)(F)F)cc2)N=C(c2ccccc2)c2ccccc21 [Example 203, (S)-N-(2,3-Dihydro-1-methyl-2-oxo-5-phenyl-1H-1,4-benzodiazepin-3-yl)-4-(trifluoromethyl)-benzamide]
[1]; IC50 ^125 I-CCK Brain
  IC50: 4600 nM
[2]; [3]
  IC50: 6200 nM
CCK receptor (pancreas); [4]
  IC50: 1.3 nM

## CCOC(=O)CN1C(=O)C(NC(=O)Nc2ccc(Cl)cc2)N=C(c2ccccc2)c2ccccc21 (stereo not drawn) [Example 204, 3-((((4-Chlorophenyl)amino)carbonyl)amino)-2,3-dihydro-2-oxo-5-phenyl-1H-1,4-benzodiazepine-1-acetic acid ethyl ester]
[1]; IC50 ^125 I-CCK Brain
  IC50: 1 nM
[2]; [5]
  IC50: 3.3 nM
CCK receptor (pancreas); [4]
  IC50: 370 nM

## CCOC(=O)CN1C(=O)C(NC(=O)NC(C)C)N=C(c2ccccc2F)c2ccccc21 (stereo not drawn) [Example 205, 5-(2-Fluorophenyl)-2,5-dihydro-3-((((1-methylethyl)amino)carbonyl)amino)-2-oxo-1H-1,4-benzodiazepine-1-acetic acid ethyl ester]
[1]; [6]
  IC50: > 300 nM
[2]; [3]
  IC50: 33000 nM
CCK receptor (pancreas); IC50 ^125 I-CCK Pancreas
  IC50: 35000 nM

## CN1C(=O)[C@H](NC(=O)c2ccc(C(F)(F)F)cc2)N=C(c2ccccc2)c2ccccc21 [Example 207, (R)-N-(2,3-Dihydro-1-methyl-2-oxo-5-phenyl-1H-1,4-benzodiazepin-3-yl)-4-(trifluoromethyl)-benzamide]
[1]; IC50 ^125 I-CCK Brain
  IC50: 3300 nM
[2]; [3]
  IC50: 4200 nM
CCK receptor (pancreas); [4]
  IC50: 115000 nM

## O=C(Nc1ccc(Cl)cc1)NC1N=C(c2ccccc2)c2ccccc2N(CC(=O)OCc2ccccc2)C1=O (stereo not drawn) [Example 208, 3-((((4-Chlorophenyl)amino)carbonyl)amino)-2,3-dihydro-2-oxo-5-phenyl-1H-1,4-benzodiazepine-1-acetic acid phenylmethyl ester]
[1]; [6]
  IC50: 44 nM
[2]; [3]
  IC50: 140 nM
CCK receptor (pancreas); [4]
  IC50: 1300 nM

## CCOC(=O)CN1C(=O)C(NC(=O)OCc2ccccc2)N=C(c2ccccc2)c2ccccc21 (stereo not drawn) [Example 209, 2,3-Dihydro-2-oxo-5-phenyl-3-(((phenylmethoxy)carbonyl)amino)-1H-1,4-benzodiazepine-1-acetic acid ethyl ester]
[1]; [6]
  IC50: 300 nM
[2]; [3]
  IC50: 300 nM
CCK receptor (pancreas); IC50 ^125 I-CCK Pancreas
  IC50: 2200 nM

## CN1C(=O)[C@@H](Cc2c[nH]c3ccccc23)N=C(c2ccccc2)c2ccccc21 [Example 210, (R)-1,3-Dihydro-3-(1H-indol-3-ylmethyl)-1-methyl-5-phenyl-2H-1,4-benzodiazepin-2-one]
[1]; IC50 ^125 I-CCK Brain
  IC50: 10000 nM
[2]; [5]
  IC50: 21000 nM
CCK receptor (pancreas); IC50 ^125 I-CCK Pancreas
  IC50: 300 nM

## O=C(CN1C(=O)C(NC(=O)OCc2ccccc2)N=C(c2ccccc2)c2ccccc21)NCc1ccccc1 (stereo not drawn) [Example 212, (2,3-Dihydro-2-oxo-1-(2-oxo-2-((phenylmethyl)amino)ethyl)-5-phenyl-1H-1,4-benzodiazepin-3-yl)-carbamic acid phenylmethyl ester]
[1]; [6]
  IC50: 400 nM
[2]; [3]
  IC50: 600 nM
CCK receptor (pancreas); IC50 ^125 I-CCK Pancreas
  IC50: 1900 nM

## CCCCNC(=O)CN1C(=O)C(NC(=O)OCc2ccccc2)N=C(c2ccccc2)c2ccccc21 (stereo not drawn) [Example 213, {2,3-Dihydro-2-oxo-1-[2-oxo-2-(butylamino)ethyl]-5-phenyl-1H-1,4-benzodiazepin-3-yl}-carbamic acid phenylmethyl ester]
[1]; [6]
  IC50: 380 nM
[2]; [3]
  IC50: 280 nM
CCK receptor (pancreas); IC50 ^125 I-CCK Pancreas
  IC50: 2100 nM

## CCOC(=O)CN1C(=O)C(NC(=O)c2cc3ccccc3[nH]2)N=C(c2ccccc2F)c2ccccc21 (stereo not drawn) [Example 214, 5-(2-Fluorophenyl)-2,3-dihydro-3-((1H-indol-2-ylcarbonyl)amino)-2-oxo-1H-1,4-benzodiazepine-1-acetic acid ethyl ester]
[1]; IC50 ^125 I-CCK Brain
  IC50: 220 nM
[2]; [5]
  IC50: 120 nM
CCK receptor (pancreas); [4]
  IC50: 3 nM

## CCNC(=O)CN1C(=O)C(NC(=O)OCc2ccccc2)N=C(c2ccccc2)c2ccccc21 (stereo not drawn) [Example 215]
[1]; [6]
  IC50: 1800 nM
[2]; [3]
  IC50: 560 nM
CCK receptor (pancreas); IC50 ^125 I-CCK Pancreas
  IC50: 4800 nM

## CN1C(=O)C(NC(=O)c2ccc(Br)cc2)N=C(c2ccccc2)c2ccccc21 (stereo not drawn) [Example 216, 4-Bromo-N-(2,3-dihydro-1-methyl-2-oxo-5-phenyl-1H-1,4-benzodiazepin-3-yl)-benzamide]
[1]; IC50 ^125 I-CCK Brain
  IC50: 2400 nM
[2]; [3]
  IC50: 1700 nM
CCK receptor (pancreas); [4]
  IC50: 1 nM

## CN1C(=O)C(NC(=O)Nc2ccc(Cl)cc2)N=C(c2ccccc2)c2ccccc21 (stereo not drawn) [Example 217]
[1]; IC50 ^125 I-CCK Brain
  IC50: 23 nM
[2]; [3]
  IC50: 22 nM
CCK receptor (pancreas); [4]
  IC50: 51 nM

## CN1C(=O)[C@@H](NC(=O)c2ccc(C(F)(F)F)cc2)N=C(c2ccccc2F)c2ccccc21 [Example 219, (S)-N-(5-(2-Fluorophenyl)-2,3-dihydro-1-methyl-2-oxo-1H-1,4-benzodiazepin-3-yl)-4-(trifluoromethyl)-benzamide]
[1]; IC50 ^125 I-CCK Brain
  IC50: 1400 nM
[2]; [3]
  IC50: 440 nM
CCK receptor (pancreas); IC50 ^125 I-CCK Pancreas
  IC50: 0.5 nM

## O=C(CN1C(=O)C(NC(=O)Nc2ccc(Cl)cc2)N=C(c2ccccc2)c2ccccc21)NCc1ccccc1 (stereo not drawn) [Example 220]
[1]; [6]
  IC50: 100 nM
[2]; [3]
  IC50: 150 nM
CCK receptor (pancreas); [4]
  IC50: 2400 nM

## CCN(CC)C(=O)CN1C(=O)C(NC(=O)Nc2ccc(Cl)cc2)N=C(c2ccccc2)c2ccccc21 (stereo not drawn) [Example 221, 3-((((4-Chlorophenyl)amino)carbonyl)amino)-N,N-diethyl-2,3-dihydro-2-oxo-5-phenyl-1H-1,4-benzodiazepine-1-acetamide]
[1]; [6]
  IC50: 0.6 nM
[2]; [3]
  IC50: 2 nM
CCK receptor (pancreas); [4]
  IC50: 400 nM

## CCN(CC)C(=O)CN1C(=O)C(NC(=O)OCc2ccccc2)N=C(c2ccccc2)c2ccccc21 (stereo not drawn) [Example 222]
[1]; [6]
  IC50: 150 nM
[2]; [3]
  IC50: 230 nM
CCK receptor (pancreas); IC50 ^125 I-CCK Pancreas
  IC50: 2200 nM

## CCCCCc1ccc(C(=O)NC2N=C(c3ccccc3F)c3ccccc3N(C)C2=O)cc1 (stereo not drawn) [Example 223, N-(5-(2-Fluorophenyl)-2,3-dihydro-1-methyl-2-oxo-1H-1,4-benzodiazepin-3-yl)-4-pentylbenzamide]
[1]; IC50 ^125 I-CCK Brain
  IC50: > 100000 nM
[2]; [5]
  IC50: > 100000 nM
CCK receptor (pancreas); IC50 ^125 I-CCK Pancreas
  IC50: 140 nM

## CCNC(=O)CN1C(=O)C(NC(=O)Nc2ccc(Cl)cc2)N=C(c2ccccc2)c2ccccc21 (stereo not drawn) [Example 224, 3-((((4-Chlorophenyl)amino)carbonyl)amino)-N-ethyl-2,3-dihydro-2-oxo-5-phenyl-1H-1,4-benzodiazepine-1-acetamide]
[1]; [6]
  IC50: 11 nM
[2]; [3]
  IC50: 25 nM
CCK receptor (pancreas); [4]
  IC50: 2100 nM

## CN1C(=O)C(NC(=O)c2ccc(C(C)(C)C)cc2)N=C(c2ccccc2F)c2ccccc21 (stereo not drawn) [Example 226, 4-(1,1-Dimethylethyl)-N-(5-(2-fluorophenyl)-2,3-dihydro-1-methyl-2-oxo-1H-1,4-benzodiazepin-3-yl)-benzamide]
[1]; [6]
  IC50: 2300 nM
[2]; [3]
  IC50: 6400 nM
CCK receptor (pancreas); IC50 ^125 I-CCK Pancreas
  IC50: < 100 nM

## CC(C)CC(N)C(=O)N1CC(CC2N=C(c3ccccc3)c3ccccc3NC2=O)c2ccccc21 (stereo not drawn) [Example 227, 1-(2-Amino-4-methyl-1-oxopentyl)-3-((2,3-dihydro-2-oxo-5-phenyl-1H-1,4-benzodiazepin-3-yl)methyl)-2,3-dihydro-1H-indole hydrochloride]
[1]; IC50 ^125 I-CCK Brain
  IC50: 50000 nM
[2]; [5]
  IC50: > 100000 nM
CCK receptor (pancreas); IC50 ^125 I-CCK Pancreas
  IC50: 6600 nM

## CCCCCc1ccc(C(=O)N[C@H]2N=C(c3ccccc3F)c3ccccc3N(C)C2=O)cc1 [Example 228, (S)-N-(5-(2-Fluorophenyl)-2,3-dihydro-1-methyl-2-oxo-1H-1,4-benzodiazepin-3-yl)-4-pentylbenzamide]
[1]; IC50 ^125 I-CCK Brain
  IC50: 100000 nM
[2]; [5]
  IC50: 60000 nM
CCK receptor (pancreas); IC50 ^125 I-CCK Pancreas
  IC50: 49 nM

## CCOC(=O)CCN1C(=O)C(NC(=O)OCc2ccccc2)N=C(c2ccccc2)c2ccccc21 (stereo not drawn) [Example 229, 2,3-Dihydro-2-oxo-5-phenyl-3-(((phenylmethoxy)carbonyl)amino)-1H-1,4-benzodiazepine-1-propanoic acid ethyl ester]
[1]; [6]
  IC50: 440 nM
[2]; [3]
  IC50: 260 nM
CCK receptor (pancreas); IC50 ^125 I-CCK Pancreas
  IC50: 1200 nM
